Test results from ChEMBL document CHEMBL1145420, “On sampling of fragment space” (J Med Chem, 2007).

Assays:
[1] = molecular target: Dipeptidyl peptidase 2 (Homo sapiens) (UniProt Q9UHL4); experiment: Inhibition of QPP
[2] = molecular target: Dipeptidyl peptidase 8 (Homo sapiens) (UniProt Q6V1X1); experiment: Inhibition of DPP8
[3] = molecular target: Dipeptidyl peptidase 9 (Homo sapiens) (UniProt Q86TI2); experiment: Inhibition of DPP9
[4] = molecular target: Prolyl endopeptidase FAP (Homo sapiens) (UniProt Q12884); experiment: Inhibition of FAP
Prolyl endopeptidase FAP (Homo sapiens), sequence (Q12884 whole entry): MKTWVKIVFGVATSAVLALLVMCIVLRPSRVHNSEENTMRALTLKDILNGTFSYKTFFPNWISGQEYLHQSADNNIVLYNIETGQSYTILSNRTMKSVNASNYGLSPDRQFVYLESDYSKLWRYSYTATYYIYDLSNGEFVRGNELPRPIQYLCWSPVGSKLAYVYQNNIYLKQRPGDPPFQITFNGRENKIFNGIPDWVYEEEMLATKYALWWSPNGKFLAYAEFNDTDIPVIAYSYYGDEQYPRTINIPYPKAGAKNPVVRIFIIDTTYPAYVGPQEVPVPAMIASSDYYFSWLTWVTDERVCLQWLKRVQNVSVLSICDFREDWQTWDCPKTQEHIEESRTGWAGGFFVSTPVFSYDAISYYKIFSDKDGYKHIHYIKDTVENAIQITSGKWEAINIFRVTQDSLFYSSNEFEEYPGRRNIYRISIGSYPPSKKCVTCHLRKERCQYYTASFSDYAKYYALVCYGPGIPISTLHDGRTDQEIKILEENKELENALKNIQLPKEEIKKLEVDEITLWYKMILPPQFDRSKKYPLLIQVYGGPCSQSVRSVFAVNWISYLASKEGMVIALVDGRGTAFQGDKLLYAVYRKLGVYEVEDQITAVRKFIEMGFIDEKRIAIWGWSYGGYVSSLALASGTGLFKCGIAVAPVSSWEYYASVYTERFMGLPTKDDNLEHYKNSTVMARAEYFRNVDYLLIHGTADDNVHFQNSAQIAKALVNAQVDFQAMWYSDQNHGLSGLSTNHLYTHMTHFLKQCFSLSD

[5] = molecular target: T1, Prolyl endopeptidase (Homo sapiens) (UniProt P48147); experiment: Inhibition of PEP
T1 sequence (whole entry): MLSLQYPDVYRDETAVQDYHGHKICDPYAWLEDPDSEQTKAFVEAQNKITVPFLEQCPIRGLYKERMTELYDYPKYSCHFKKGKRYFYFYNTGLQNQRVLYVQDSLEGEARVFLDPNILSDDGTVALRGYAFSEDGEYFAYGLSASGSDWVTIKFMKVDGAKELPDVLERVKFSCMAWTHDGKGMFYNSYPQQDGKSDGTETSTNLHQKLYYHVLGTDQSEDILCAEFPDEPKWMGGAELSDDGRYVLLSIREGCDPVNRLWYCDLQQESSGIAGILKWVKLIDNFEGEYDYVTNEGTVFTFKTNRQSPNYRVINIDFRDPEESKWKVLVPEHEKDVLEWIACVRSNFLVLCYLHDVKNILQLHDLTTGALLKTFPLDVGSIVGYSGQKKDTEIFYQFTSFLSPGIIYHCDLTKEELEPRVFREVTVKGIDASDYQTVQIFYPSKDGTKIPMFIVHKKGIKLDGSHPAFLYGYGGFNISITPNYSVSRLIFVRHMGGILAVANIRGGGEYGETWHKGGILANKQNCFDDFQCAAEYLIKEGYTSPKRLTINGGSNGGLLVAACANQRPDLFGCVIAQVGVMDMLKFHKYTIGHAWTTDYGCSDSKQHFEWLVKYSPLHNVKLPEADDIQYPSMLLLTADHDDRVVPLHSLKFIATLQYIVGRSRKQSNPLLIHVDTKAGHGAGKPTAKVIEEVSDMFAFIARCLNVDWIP

Dipeptidyl peptidase 9 (Homo sapiens), sequence (Q86TI2 2-863 limits assumed): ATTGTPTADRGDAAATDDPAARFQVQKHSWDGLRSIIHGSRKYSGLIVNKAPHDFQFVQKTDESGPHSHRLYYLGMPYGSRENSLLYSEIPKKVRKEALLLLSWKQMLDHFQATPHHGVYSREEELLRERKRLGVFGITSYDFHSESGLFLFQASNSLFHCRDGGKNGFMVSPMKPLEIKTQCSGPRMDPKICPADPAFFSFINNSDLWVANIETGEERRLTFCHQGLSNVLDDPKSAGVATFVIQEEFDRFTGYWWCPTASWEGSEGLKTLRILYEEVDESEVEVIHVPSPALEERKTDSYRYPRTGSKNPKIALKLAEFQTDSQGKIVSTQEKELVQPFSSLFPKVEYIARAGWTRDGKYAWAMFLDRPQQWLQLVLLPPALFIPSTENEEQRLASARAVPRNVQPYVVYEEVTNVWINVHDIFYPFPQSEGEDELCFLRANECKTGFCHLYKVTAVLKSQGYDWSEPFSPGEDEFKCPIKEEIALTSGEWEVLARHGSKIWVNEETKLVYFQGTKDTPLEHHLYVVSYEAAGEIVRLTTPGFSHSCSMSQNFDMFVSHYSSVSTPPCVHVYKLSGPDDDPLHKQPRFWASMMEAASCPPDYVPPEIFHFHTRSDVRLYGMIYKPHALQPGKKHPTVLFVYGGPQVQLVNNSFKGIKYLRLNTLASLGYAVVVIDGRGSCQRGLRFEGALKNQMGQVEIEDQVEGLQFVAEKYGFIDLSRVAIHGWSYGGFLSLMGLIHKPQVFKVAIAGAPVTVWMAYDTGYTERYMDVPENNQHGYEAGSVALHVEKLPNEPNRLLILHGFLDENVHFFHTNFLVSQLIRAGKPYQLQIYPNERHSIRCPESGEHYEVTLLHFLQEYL
Dipeptidyl peptidase 8 (Homo sapiens), sequence (Q6V1X1 whole entry, looked up): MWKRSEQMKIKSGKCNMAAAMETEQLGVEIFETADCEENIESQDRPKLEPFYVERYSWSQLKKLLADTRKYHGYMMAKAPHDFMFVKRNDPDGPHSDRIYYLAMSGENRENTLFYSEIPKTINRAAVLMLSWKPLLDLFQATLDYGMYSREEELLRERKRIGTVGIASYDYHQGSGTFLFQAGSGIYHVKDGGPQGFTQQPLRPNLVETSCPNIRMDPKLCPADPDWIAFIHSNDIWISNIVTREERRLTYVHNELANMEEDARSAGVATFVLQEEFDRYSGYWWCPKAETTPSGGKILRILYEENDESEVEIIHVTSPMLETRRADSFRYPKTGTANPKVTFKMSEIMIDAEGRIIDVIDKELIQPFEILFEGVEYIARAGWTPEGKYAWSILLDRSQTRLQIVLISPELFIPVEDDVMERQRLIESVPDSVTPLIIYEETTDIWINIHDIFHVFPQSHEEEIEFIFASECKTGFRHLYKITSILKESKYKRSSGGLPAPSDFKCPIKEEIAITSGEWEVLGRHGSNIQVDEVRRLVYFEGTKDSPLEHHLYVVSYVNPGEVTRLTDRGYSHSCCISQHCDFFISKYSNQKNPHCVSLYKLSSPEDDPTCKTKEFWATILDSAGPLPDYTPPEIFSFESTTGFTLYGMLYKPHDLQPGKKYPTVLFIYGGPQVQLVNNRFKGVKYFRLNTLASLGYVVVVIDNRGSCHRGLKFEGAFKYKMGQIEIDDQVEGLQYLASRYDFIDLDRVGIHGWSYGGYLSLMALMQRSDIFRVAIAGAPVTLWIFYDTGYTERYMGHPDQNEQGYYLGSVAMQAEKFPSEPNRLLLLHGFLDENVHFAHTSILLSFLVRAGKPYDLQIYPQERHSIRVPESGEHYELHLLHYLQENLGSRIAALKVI

SMILES | Activity [1] | Activity [2] | Activity [3] | Activity [4] | Activity [5]
CNC(=O)C[C@H](N)Cc1ccccc1 | 680 µM | 460 µM | > 1000 µM | > 1000 µM | > 1000 µM
N[C@@H](CC(=O)N1CCC[C@H]1C(=O)NCc1cc(Cl)ccc1OCC(=O)NC1CC1)Cc1ccccc1 | 66 µM | > 10 µM | > 100 µM |  | 
